# Reference: patent US9926302B2, “Heteroaryl substituted heterocyclyl sulfones” (priority 2014, dated 2018)
# Molecular target: T1, Human CaV2.2 channels (Homo sapiens, UniProt Q00975)
# T1 construct: expressed in transfected cells
# Test: Fluorescence assay for CaV2.2 channels using potassium depolarization to induce channel opening (FLIPR, Fluo 4)
# Type: cell-based
# Settings: 3 μM test compound; alternative assay buffer 30 mM KCl (inactivated channel state); HEK293 cells stably expressing human CaV2.2
# Description: In the process, the Ca^2+ influx is quantified in the FLIPR assay with the aid of a Ca^2+-sensitive dye (type Fluo-4, Molecular Probes Europe BV, Leiden, the Netherlands) in a fluorescent imaging plate reader (FLIPR 3, Molecular Devices, Sunnyvale, USA), as described hereinafter.
# 2.1 Fluorescence Assay for CaV2.2 Channels Using Potassium Depolarization to Induce Channel Opening
# Human CaV2.2 channels were stably expressed in HEK293 cells together with alpha2-delta and beta subunits of voltage gated calcium channels. In addition, an inwardly rectifying potassium channel (Kir2.3) was stably expressed in these cells to augment control of the cell membrane potential by the concentration of extracellular potassium ions. Raise of the extracellular potassium concentration leads to depolarization of the membrane potential and thus regulates the voltage dependent state of CaV2.2 channels. For preparation, cells were seeded in black poly-D-lysine coated 96-well plates (Becton Dickinson, Biocoat 4640) in 100 μL medium [500 mL DMEM/F-12 plus Glutamax (Invitrogen 31331-093) plus 5.5 mL MEM NEAA 100× (Invitrogen 11140-035) plus 50 mL FBS decomplemented (Invitrogen 10270-106) plus 200 μg/mL Geneticin (Invitrogen 10131-027) plus 50 μg/mL Hygromycin B (Invitrogen 10687-010) plus 2 μg/mL Blasticidin (anti-bl5b Invivo-Gen) plus 0.2 μg/mL Puromycin (A 11138-03)] at a cell density of 30.000 cells per well. Plates were incubated at 37° C. (5% CO2) for 20 to 23 h. On the day of experiment medium was discarded and cells were loaded with Fluo 4 by addition of 100 μL of basic assay buffer (10 mM HEPES, 1 mM KCl, 149 mM NaCl, 0.8 mM CaCl2, 1.7 mM MgCl2, 10 mM Glucose, 0.1% BSA. pH 7.4) containing 2 μM Fluo 4 (Molecular Probes; F-14201), 0.01% pluronic acid (Molecular Probes; P-6866) and 2.5 mM probenecid (Molecular Probes; P36400). Cells were incubated in the dark at 25° C. for 60 min. Then dye containing buffer was discarded and 100 μL basic (1 mM KCl) or alternative (30 mM KCl) assay buffer was added. The alternative assay buffer contained altered concentrations of KCl (30 mM) and NaCl (120 mM) and was used in order to promote the inactivated channel state. After that 25 μL of basic or alternative assay buffer with or without test compound were added and cells were incubated again in the dark at 25° C. for 15 min. Fluorescence intensity was measured on a FLIPR 3 instrument (Molecular Devices Corp., Sunnyvale, Calif.) with excitation at 480 nm and emission at 535 nm. After continuously reading fluorescence for 30 sec, 50 μL of basic assay buffer containing 210 mM KCl (NaCl omitted) were added for depolarization. Peak fluorescent signal intensity was determined and the amplitude of the peak signal, normalized to base line, was used to measure channel inhibition by test compounds.
# T1 sequence (P54289 947-1103): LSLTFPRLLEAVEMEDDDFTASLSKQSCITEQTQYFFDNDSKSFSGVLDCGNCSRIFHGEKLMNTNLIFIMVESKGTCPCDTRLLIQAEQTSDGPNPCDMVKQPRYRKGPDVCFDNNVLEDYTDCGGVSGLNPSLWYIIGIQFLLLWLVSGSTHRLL
# T1 sequence (P54289 25-946): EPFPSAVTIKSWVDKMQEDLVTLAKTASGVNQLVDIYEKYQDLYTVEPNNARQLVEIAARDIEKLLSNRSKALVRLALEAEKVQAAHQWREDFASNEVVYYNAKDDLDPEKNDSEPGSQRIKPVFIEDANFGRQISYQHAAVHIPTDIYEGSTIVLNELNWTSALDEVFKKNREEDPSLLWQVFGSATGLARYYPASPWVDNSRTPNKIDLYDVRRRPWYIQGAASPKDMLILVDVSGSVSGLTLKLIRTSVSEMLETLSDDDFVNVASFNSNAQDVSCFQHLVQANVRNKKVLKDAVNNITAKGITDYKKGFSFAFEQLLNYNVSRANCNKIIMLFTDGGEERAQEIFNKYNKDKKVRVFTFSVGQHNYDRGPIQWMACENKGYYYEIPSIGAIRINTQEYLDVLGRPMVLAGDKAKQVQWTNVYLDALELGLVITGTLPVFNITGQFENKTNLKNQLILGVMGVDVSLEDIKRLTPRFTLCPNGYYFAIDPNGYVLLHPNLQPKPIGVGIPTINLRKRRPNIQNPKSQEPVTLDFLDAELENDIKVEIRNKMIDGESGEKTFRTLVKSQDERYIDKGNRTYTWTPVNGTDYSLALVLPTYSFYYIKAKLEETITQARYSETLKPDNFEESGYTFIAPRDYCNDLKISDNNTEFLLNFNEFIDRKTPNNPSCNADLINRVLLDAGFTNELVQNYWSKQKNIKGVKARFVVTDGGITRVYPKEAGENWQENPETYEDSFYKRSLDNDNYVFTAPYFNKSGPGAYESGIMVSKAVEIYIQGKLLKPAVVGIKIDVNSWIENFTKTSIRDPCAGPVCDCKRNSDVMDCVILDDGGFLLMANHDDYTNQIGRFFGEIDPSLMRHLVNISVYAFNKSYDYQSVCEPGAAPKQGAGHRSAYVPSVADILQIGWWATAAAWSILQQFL
# T1 sequence (P54284 whole entry, further chain): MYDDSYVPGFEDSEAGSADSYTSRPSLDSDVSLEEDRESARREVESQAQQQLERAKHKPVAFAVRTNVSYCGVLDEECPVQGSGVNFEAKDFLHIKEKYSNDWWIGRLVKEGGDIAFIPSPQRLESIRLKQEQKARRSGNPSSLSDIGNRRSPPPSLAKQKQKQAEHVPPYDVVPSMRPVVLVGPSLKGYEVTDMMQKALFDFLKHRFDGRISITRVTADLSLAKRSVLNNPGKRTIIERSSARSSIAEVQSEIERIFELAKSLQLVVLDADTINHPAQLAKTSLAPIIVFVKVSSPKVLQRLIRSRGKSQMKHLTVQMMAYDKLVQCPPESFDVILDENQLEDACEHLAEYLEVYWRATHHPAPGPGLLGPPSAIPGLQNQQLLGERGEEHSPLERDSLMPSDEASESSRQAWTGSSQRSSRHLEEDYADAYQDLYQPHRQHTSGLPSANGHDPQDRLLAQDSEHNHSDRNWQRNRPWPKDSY
# T1 sequence (Q00975 whole entry): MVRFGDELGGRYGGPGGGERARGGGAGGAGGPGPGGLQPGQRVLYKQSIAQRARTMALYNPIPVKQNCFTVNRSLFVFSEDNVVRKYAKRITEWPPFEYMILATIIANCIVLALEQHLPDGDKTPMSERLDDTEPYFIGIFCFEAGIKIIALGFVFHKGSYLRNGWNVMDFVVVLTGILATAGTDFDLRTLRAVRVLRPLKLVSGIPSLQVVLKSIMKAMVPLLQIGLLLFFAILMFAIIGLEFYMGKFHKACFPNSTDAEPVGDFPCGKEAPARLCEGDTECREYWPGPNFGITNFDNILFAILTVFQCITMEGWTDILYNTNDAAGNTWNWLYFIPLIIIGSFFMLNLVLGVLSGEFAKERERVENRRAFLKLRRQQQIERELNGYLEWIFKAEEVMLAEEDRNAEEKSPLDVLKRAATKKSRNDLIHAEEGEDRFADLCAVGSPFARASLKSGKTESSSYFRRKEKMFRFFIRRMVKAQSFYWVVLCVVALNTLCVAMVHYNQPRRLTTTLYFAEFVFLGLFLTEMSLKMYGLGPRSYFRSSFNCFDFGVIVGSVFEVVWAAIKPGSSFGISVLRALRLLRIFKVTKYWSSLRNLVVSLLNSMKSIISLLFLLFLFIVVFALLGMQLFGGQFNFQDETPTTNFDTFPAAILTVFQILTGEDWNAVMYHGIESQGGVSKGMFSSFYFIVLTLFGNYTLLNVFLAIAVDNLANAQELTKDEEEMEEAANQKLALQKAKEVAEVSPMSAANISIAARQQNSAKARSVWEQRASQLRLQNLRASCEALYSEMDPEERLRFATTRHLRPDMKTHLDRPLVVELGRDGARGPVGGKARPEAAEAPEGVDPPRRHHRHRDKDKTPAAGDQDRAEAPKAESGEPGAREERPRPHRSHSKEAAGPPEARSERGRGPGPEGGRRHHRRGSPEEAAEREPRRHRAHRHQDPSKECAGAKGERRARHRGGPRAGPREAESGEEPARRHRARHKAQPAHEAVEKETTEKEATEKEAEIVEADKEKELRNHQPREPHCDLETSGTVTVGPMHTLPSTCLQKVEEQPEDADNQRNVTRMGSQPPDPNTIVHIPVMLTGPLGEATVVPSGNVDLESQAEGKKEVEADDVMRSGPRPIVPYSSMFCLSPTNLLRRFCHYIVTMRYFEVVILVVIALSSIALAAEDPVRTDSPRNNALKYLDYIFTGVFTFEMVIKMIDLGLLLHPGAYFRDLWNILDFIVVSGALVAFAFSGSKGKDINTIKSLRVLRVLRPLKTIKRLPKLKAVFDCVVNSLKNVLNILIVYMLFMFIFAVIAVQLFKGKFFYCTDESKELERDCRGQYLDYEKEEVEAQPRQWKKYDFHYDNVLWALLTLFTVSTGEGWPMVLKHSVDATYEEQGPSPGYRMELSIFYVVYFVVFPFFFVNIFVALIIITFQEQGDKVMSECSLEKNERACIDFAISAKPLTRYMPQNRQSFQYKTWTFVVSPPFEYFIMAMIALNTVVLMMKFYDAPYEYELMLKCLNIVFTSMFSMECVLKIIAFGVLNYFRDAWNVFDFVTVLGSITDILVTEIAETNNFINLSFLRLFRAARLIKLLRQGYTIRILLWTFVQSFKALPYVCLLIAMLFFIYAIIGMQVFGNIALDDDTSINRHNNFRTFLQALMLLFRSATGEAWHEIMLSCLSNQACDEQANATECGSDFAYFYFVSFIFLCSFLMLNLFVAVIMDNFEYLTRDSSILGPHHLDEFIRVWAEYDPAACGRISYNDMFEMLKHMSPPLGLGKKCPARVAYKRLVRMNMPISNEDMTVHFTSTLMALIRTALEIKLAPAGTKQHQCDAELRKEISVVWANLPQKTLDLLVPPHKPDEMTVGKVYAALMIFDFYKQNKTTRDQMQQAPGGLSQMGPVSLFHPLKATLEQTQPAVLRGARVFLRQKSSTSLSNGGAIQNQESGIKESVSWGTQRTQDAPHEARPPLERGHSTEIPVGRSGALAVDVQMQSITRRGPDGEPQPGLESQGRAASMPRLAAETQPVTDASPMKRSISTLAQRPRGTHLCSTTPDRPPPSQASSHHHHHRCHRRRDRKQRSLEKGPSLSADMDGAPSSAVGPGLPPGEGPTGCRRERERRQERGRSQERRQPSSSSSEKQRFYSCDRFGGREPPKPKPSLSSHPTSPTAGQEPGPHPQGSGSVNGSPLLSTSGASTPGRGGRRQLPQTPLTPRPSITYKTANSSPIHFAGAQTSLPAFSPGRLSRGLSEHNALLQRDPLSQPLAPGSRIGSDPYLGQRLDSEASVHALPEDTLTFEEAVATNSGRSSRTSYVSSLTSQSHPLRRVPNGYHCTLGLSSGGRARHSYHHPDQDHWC
row,Structure (SMILES),Activity Category: %-Inhib (CaV2.2) @3 μM @30 mM KCl
1,"CC1(S(=O)(=O)c2cccc(C(F)(F)F)c2)CCOC(c2nnc(C(F)(F)F)o2)C1 (single isomer, unassigned) [SC-121, 2-[4-Methyl-4-[[3-(trifluoromethyl)phenyl]sulfonyl]-tetrahydro-pyran-2-yl]-5-(trifluoromethyl)-[1,3,4]oxadiazole]",C (%-Inhibition >40% up to ≤75%)
2,"C[S+]([O-])c1cc(C(F)(F)F)cnc1C1CC(C)(S(=O)(=O)c2cccc(C(F)(F)F)c2)CCO1 (stereo not shown) [SC-229, 3-(Methylsulfinyl)-2-[4-methyl-4-[[3-(trifluoromethyl)phenyl]sulfonyl]-tetrahydro-pyran-2-yl]-5-(trifluoromethyl)-pyridine]",B (%-Inhibition >75% up to ≤95%)
3,"CC(C)c1cccc(S(=O)(=O)C2(C)CCOC(c3ncc(S(C)(=O)=O)cc3Cl)C2)c1 (stereo not shown) [SC-447, 3-Chloro-2-[4-[(3-isopropyl-phenyl)sulfonyl]-4-methyl-tetrahydro-pyran-2-yl]-5-methylsulfonyl-pyridine]",A (%-Inhibition >95%)
4,"COc1ccc(C2CC(C)(S(=O)(=O)c3cccc(C(F)(F)F)c3)CCO2)cn1 (stereo not shown) [SC-354, 2-Methoxy-5-[4-methyl-4-[[3-(trifluoromethyl)phenyl]sulfonyl]-tetrahydro-pyran-2-yl]-pyridine]",A (%-Inhibition >95%)
5,"CC1(S(=O)(=O)c2cccc(C(F)(F)F)c2)CCOC(c2nnc(C(F)F)o2)C1 (single isomer, unassigned) [SC-123, 2-(Difluoro-methyl)-5-[4-methyl-4-[[3-(trifluoromethyl)phenyl]sulfonyl]-tetrahydro-pyran-2-yl]-[1,3,4]oxadiazole]",B (%-Inhibition >75% up to ≤95%)
6,"CC1(S(=O)(=O)c2cccc(C(F)(F)F)c2)CCOC(c2ccc(S(C)(=O)=O)nc2)C1 (stereo not shown) [SC-336, 2-Methylsulfonyl-5-[4-methyl-4-[[3-(trifluoromethyl)phenyl]sulfonyl]-tetrahydro-pyran-2-yl]-pyridine]",C (%-Inhibition >40% up to ≤75%)
7,"CCC1(S(=O)(=O)c2cccc(C(F)(F)F)c2)CCOC(c2ccc(C)nc2C)C1 (stereo not shown) [SC-318, 3-[4-Ethyl-4-[[3-(trifluoromethyl)phenyl]sulfonyl]-tetrahydro-pyran-2-yl]-2,6-dimethyl-pyridine]",B (%-Inhibition >75% up to ≤95%)
8,"COc1cc(C#N)c(C2CC(C)(S(=O)(=O)c3cccc(C(F)(F)F)c3)CCO2)cn1 (stereo not shown) [SC-260, 2-Methoxy-5-[4-methyl-4-[[3-(trifluoromethyl)phenyl]sulfonyl]-tetrahydro-pyran-2-yl]-isonicotinonitrile]",A (%-Inhibition >95%)
9,"Cn1nc(C2CC2)cc1C1CC(C)(S(=O)(=O)c2cccc(C(F)(F)F)c2)CCO1 (stereo not shown) [SC-432, 3-Cyclopropyl-1-methyl-5-[4-methyl-4-[[3-(trifluoromethyl)phenyl]sulfonyl]-tetrahydro-pyran-2-yl]-1H-pyrazole]",A (%-Inhibition >95%)

# Same assay, conditions: HEK293, 3 μM test compound; alternative assay buffer 30 mM KCl (inactivated channel state); HEK293 cells stably expressing human CaV2.2; read-out: Activity Category: %-Inhib (CaV2.2) @3 μM @30 mM KCl
row,Structure (SMILES),inhibition at 3 µM
1,"CC1(S(=O)(=O)c2cccc(C(F)(F)F)c2)CCOC(c2ncc(OC(F)F)cc2S(C)(=O)=O)C1 (stereo not shown) [SC-266, 5-(difluoromethoxy)-2-(4-methyl-4-((3-(trifluoromethyl)phenyl)sulfonyl)tetrahydro-2H-pyran-2-yl)-3-(methylsulfonyl)pyridine]",> 95%
2,"C[S+]([O-])c1cc(C(F)(F)F)cnc1C1CC(C)(S(=O)(=O)c2cccc(C(F)(F)F)c2)CCO1 (stereo not shown) [SC-228, 3-(Methylsulfinyl)-2-[4-methyl-4-[[3-(trifluoromethyl)phenyl]sulfonyl]-tetrahydro-pyran-2-yl]-5-(trifluoromethyl)-pyridine]",> 95%
3,"CC1(S(=O)(=O)c2cccc(C(F)(F)F)c2)CCOC(c2ccc(OC(F)F)nc2)C1 (stereo not shown) [SC-418, 2-(Difluoro-methoxy)-5-[4-methyl-4-[[3-(trifluoromethyl)phenyl]sulfonyl]-tetrahydro-pyran-2-yl]-pyridine]",> 95%
4,"CC1(S(=O)(=O)c2cccc(C(F)(F)F)c2)CCOC(c2ncc(C(F)(F)F)cc2Cl)C1 (racemic) [SC-340, 3-Chloro-2-(4-methyl-4-((3-(trifluoromethyl)phenyl)sulfonyl)tetrahydro-2H-pyran-2-yl)-5-(trifluoromethyl)pyridine]",> 95%
5,"COc1cc(S(C)(=O)=O)cnc1C1CC(C)(S(=O)(=O)c2cccc(C(F)(F)F)c2)CCO1 (stereo not shown) [SC-224, 3-Methoxy-5-methylsulfonyl-2-[4-methyl-4-[[3-(trifluoromethyl)phenyl]sulfonyl]-tetrahydro-pyran-2-yl]-pyridine]",75 to 95%
6,"COc1cc(F)c(C2CC(C)(S(=O)(=O)c3cccc(C(F)(F)F)c3)CCO2)cn1 (racemic) [SC-259, 4-Fluoro-2-methoxy-5-[4-methyl-4-[[3-(trifluoromethyl)phenyl]sulfonyl]-tetrahydro-pyran-2-yl]-pyridine]",> 95%
7,"CNc1ccc(C2CC(C)(S(=O)(=O)c3cccc(C(F)(F)F)c3)CCO2)cn1 (racemic) [SC-412, Methyl-[5-[4-methyl-4-[[3-(trifluoromethyl)phenyl]sulfonyl]-tetrahydro-pyran-2-yl]-pyridin-2-yl]-amine]",75 to 95%
8,"CC1(S(=O)(=O)c2cccc(C(F)(F)F)c2)CCOC(c2ncc(S(C)(=O)=O)cc2C(F)(F)F)C1 (stereo not shown) [SC-222, 5-Methylsulfonyl-2-[4-methyl-4-[[3-(trifluoromethyl)phenyl]sulfonyl]-tetrahydro-pyran-2-yl]-3-(trifluoromethyl)-pyridine]",75 to 95%
9,"CC1(S(=O)(=O)c2cccc(C(F)(F)F)c2)CCOC(c2ccc(C3CC3)nc2)C1 (stereo not shown) [SC-346, 2-Cyclopropyl-5-[4-methyl-4-[[3-(trifluoromethyl)phenyl]sulfonyl]-tetrahydro-pyran-2-yl]-pyridine]",75 to 95%
10,"CNc1ccc(C2CC(C)(S(=O)(=O)c3cccc(C(F)(F)F)c3)CCO2)cn1 (stereo not shown) [SC-408, Methyl-[5-[4-methyl-4-[[3-(trifluoromethyl)phenyl]sulfonyl]-tetrahydro-pyran-2-yl]-pyridin-2-yl]-amine]",75 to 95%
11,"CC1(S(=O)(=O)c2cccc(C(F)(F)F)c2)CCOC(c2ccc(Br)nc2)C1 (racemic) [SC-337, 2-Bromo-5-[4-methyl-4-[[3-(trifluoromethyl)phenyl]sulfonyl]-tetrahydro-pyran-2-yl]-pyridine]",> 95%
12,"CC1(S(=O)(=O)c2cccc(C(F)(F)F)c2)CCOC(COc2cnc(C3CC3)cn2)C1 (single isomer, unassigned) [SC-132, 2-Cyclopropyl-5-[[4-methyl-4-[[3-(trifluoromethyl)phenyl]sulfonyl]-tetrahydro-pyran-2-yl]-methoxy]-pyrazine]",75 to 95%
13,"CC1(S(=O)(=O)c2cccc(C(F)(F)F)c2)CCOC(c2cnc(C(F)(F)F)nc2)C1 (stereo not shown) [SC-304, 5-[4-Methyl-4-[[3-(trifluoromethyl)phenyl]sulfonyl]-tetrahydro-pyran-2-yl]-2-(trifluoromethyl)-pyrimidine]",75 to 95%
14,"CC1(S(=O)(=O)c2cccc(C(F)(F)F)c2)CCOC(c2ncc(S(C)(=O)=O)cc2OC(F)F)C1 (stereo not shown) [SC-268, 3-(difluoromethoxy)-2-(4-methyl-4-((3-(trifluoromethyl)phenyl)sulfonyl)tetrahydro-2H-pyran-2-yl)-5-(methylsulfonyl)pyridine]",75 to 95%
15,"Cn1nc(C(F)(F)F)cc1C1CC(C)(S(=O)(=O)c2cccc(C(F)(F)F)c2)CCO1 (racemic) [SC-344, 1-Methyl-5-[4-methyl-4-[[3-(trifluoromethyl)phenyl]sulfonyl]-tetrahydro-pyran-2-yl]-3-(trifluoromethyl)-1H-pyrazole]",75 to 95%
16,"CC1(S(=O)(=O)c2cccc(S(C)(=O)=O)c2)CCOC(c2ncc(C(F)(F)F)cc2S(C)(=O)=O)C1 (stereo not shown) [SC-210, 2-[4-Methyl-4-[(3-methylsulfonyl-phenyl)sulfonyl]-tetrahydro-pyran-2-yl]-3-methylsulfonyl-5-(trifluoromethyl)-pyridine]",> 95%
